Experimental findings from patent US20250154173A1 (Merck Sharp & Dohme LLC, priority 2023, published 2025) are described below.

The structures appear in SMILES notation.

In the assay the target is T1, GST-RIPK1 (recombinant GST-RIPK1 kinase domain (residues 1-327)) (Homo sapiens, UniProt Q13546).
T1 construct: recombinant GST-RIPK1 kinase domain (residues 1-327) enzyme produced from baculovirus-transfected Sf21 cells; host or cells: baculovirus-transfected Sf21 insect cells
T1 sequence (Q13546 1-327): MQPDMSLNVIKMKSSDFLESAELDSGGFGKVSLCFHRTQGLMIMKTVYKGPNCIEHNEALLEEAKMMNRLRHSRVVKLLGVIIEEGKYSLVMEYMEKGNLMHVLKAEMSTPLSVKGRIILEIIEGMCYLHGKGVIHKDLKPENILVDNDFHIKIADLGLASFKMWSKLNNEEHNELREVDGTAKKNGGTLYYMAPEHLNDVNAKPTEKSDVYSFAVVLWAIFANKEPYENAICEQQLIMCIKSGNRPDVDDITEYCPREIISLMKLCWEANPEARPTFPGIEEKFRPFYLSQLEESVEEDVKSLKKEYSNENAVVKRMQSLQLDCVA
Nature of the assay: RIPK1-ADP-Glo Enzymatic Assay. In kind it is biochemical. The conditions noted are these: ten-point titration, top compound concentration of 100000 nM; 25 nM GST-RIPK1, 300 μM ATP, 3 μM dephosphorylated-MBP; 30 min pre-incubation, 150 min reaction. An outline of the steps:
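ADP-Glo luminescence quantifies ADP formed over 150 minutes by 25 nM Sf21-produced GST-RIPK1 (1-327) using 300 μM ATP and 3 μM dephosphorylated MBP, following 30-minute compound preincubation at 1% DMSO. Ten-point 1:3 series from 100000 nM gave EC50 via four-parameter sigmoidal regression.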
Background: ADP-Glo turns the ADP formed in a reaction into a luminescent signal.

Regarding `O=C1N2C(CC[C@H]2c2cnccn2)OC12CC(OCc1ccc(Cn3ccnc3)cc1)C2` (stereo partly drawn) [Example 18.25, (5′S)-3-({4-[(1H-imidazol-1-yl)methyl]phenyl}methoxy)-5′-(pyrazin-2-yl)tetrahydro-3′H-spiro[cyclobutane-1,2′-pyrrolo[2,1-b][1,3]oxazol]-3′-one], the EC50 (in general, the concentration at which the effect is half-maximal) is 48 nM.

Turning to `Cn1nccc1-c1cc(OC2CC3(C2)O[C@@H]2CC[C@@H](c4cnccn4)N2C3=O)ncn1` (stereo partly drawn) [Example 19.20, (5′S,7a′R)-3-{[6-(1-methyl-1H-pyrazol-5-yl)pyrimidin-4-yl]oxy}-5′-(pyrazin-2-yl)tetrahydro-3′H-spiro[cyclobutane-1,2′-pyrrolo[2,1-b][1,3]oxazol]-3′-one], the EC50 turned out to be 13 nM. On to `O=C1N2C(CC[C@H]2c2cnccn2)OC12CC(OCc1cc3cncnc3s1)C2` (stereo partly drawn) [Example 18.20, (5′S)-5′-(pyrazin-2-yl)-3-[(thieno[2,3-d]pyrimidin-6-yl)methoxy]tetrahydro-3′H-spiro[cyclobutane-1,2′-pyrrolo[2,1-b][1,3]oxazol]-3′-one], for which the EC50 was found to be 22 nM. Turning to `N#Cc1ccc(COC2CC3(C2)OC2CC[C@@H](c4cnccn4)N2C3=O)c2cccnc12` (stereo partly drawn) [Example 18.14, 5-({[(5′S)-3′-oxo-5′-(pyrazin-2-yl)tetrahydro-3′H-spiro[cyclobutane-1,2′-pyrrolo[2,1-b][1,3]oxazol]-3-yl]oxy}methyl)quinoline-8-carbonitrile], the EC50 was 16 nM. With `O=C1N2[C@@H](CC[C@H]2c2cc(F)cc(F)c2)O[C@]12C[C@H](Oc1cc(Cl)ncn1)C2` [Example 9.3, (5′S,7a′R)-3-((6-chloropyrimidin-4-yl)oxy)-5′-(3,5-difluorophenyl)tetrahydro-3′H-spiro[cyclobutane-1,2′-pyrrolo[2,1-b]oxazol]-3′-one] the figure was 10 nM. With `O=C1N2[C@@H](CC[C@H]2c2cc(F)cc(F)c2)OC12CC(Oc1ccc(F)cn1)C2` (stereo partly drawn) [Example 9.37, (5′S,7a′R)-5′-(3,5-difluorophenyl)-3-[(5-fluoropyridin-2-yl)oxy]tetrahydro-3′H-spiro[cyclobutane-1,2′-pyrrolo[2,1-b][1,3]oxazol]-3′-one] the figure was 19 nM. On to `N#Cc1ncccc1O[C@H]1C[C@@]2(C1)O[C@@H]1CC[C@@H](c3ccccc3)N1C2=O` [Example 9.14, 3-{[(1r,3R,5′S,7a′R)-3′-oxo-5′-phenyltetrahydro-3′H-spiro[cyclobutane-1,2′-pyrrolo[2,1-b][1,3]oxazol]-3-yl]oxy}pyridine-2-carbonitrile], for which the EC50 was 139 nM. For `N#CCc1ncc(COC2CC3(C2)OC2CC[C@@H](c4cnccn4)N2C3=O)cc1Cl` (stereo partly drawn) [Example 18.49, [3-chloro-5-({[(5′S)-3′-oxo-5′-(pyrazin-2-yl)tetrahydro-3′H-spiro[cyclobutane-1,2′-pyrrolo[2,1-b][1,3]oxazol]-3-yl]oxy}methyl)pyridin-2-yl]acetonitrile], the EC50 turned out to be 59 nM.

Consider `N#Cc1ccc(OC2CCC2)cc1COC1CC2(C1)OC1CC[C@@H](c3cnccn3)N1C2=O` (stereo partly drawn) [Example 18.40, 4-(cyclobutyloxy)-2-({[(5′S)-3′-oxo-5′-(pyrazin-2-yl)tetrahydro-3′H-spiro[cyclobutane-1,2′-pyrrolo[2,1-b][1,3]oxazol]-3-yl]oxy}methyl)benzonitrile], for which the concentration giving a half-maximal response (EC50) was found to be 119 nM.

For `O=C1N2[C@@H](CC[C@H]2c2cc(F)cc(F)c2)OC12CC(Oc1ccccc1)C2` (single isomer, unassigned) [Example 16.2, ((1r or s),3R,5′S,7a′R)-5′-(3,5-difluorophenyl)-3-phenoxytetrahydro-3′H-spiro[cyclobutane-1,2′-pyrrolo[2,1-b]oxazol]-3′-one], the EC50 was 29 nM. With `O=C1N2[C@@H](CC[C@H]2c2cnccn2)O[C@]12C[C@@H](OCc1ccc3scnc3c1)C2` [Example 18.23, (1s,3S,5′S,7a′R)-3-[(1,3-benzothiazol-5-yl)methoxy]-5′-(pyrazin-2-yl)tetrahydro-3′H-spiro[cyclobutane-1,2′-pyrrolo [2,1-b][1,3]oxazol]-3′-one] the figure was 27 nM; with `O=C1N2[C@@H](CC[C@H]2c2ccc(F)cc2)O[C@]12C[C@H](Oc1ccnn3cccc13)C2` [Example 8.22, (1r,3R,5′S,7a′R)-5′-(4-fluorophenyl)-3-(pyrrolo[1,2-b]pyridazin-4-yloxy)tetrahydro-3′H-spiro[cyclobutane-1,2′-pyrrolo[2,1-b]oxazol]-3′-one], 29 nM; with `Cn1cc(C2CCC3OC4(CC(Oc5cc(C#N)ncn5)C4)C(=O)N32)cn1` (single isomer, unassigned) [Example 6.2, 6-((((1s or r),3R,5′(S or R),7a′R)-5′-(1-methyl-1H-pyrazol-4-yl)-3′-oxotetrahydro-3′H-spiro[cyclobutane-1,2′-pyrrolo[2,1-b]oxazol]-3-yl)oxy)pyrimidine-4-carbonitrile], 99000 nM. With `O=C1N2[C@@H](CC[C@H]2c2cnccn2)OC12CC(Oc1cnccn1)C2` (stereo partly drawn) [Example 9.66, (5′S,7a′R)-5′-(pyrazin-2-yl)-3-[(pyrazin-2-yl)oxy]tetrahydro-3′H-spiro[cyclobutane-1,2′-pyrrolo[2,1-b][1,3]oxazol]-3′-one], the concentration for a half-maximal effect (EC50) was found to be 21 nM. On to `O=C1N2[C@@H](CC[C@H]2c2cnccn2)OC12CC(Oc1ccc(F)c(F)c1)C2` (stereo partly drawn) [Example 19.5, (5′S,7a′R)-3-(3,4-difluorophenoxy)-5′-(pyrazin-2-yl)tetrahydro-3′H-spiro[cyclobutane-1,2′-pyrrolo[2,1-b][1,3]oxazol]-3′-one], for which the EC50 worked out at 11 nM. Regarding `CSc1nnc2ccc(COC3CC4(C3)OC3CC[C@@H](c5cnccn5)N3C4=O)cn12` (stereo partly drawn) [Example 18.16, (5′S)-3-{[3-(methylsulfanyl)[1,2,4]triazolo[4,3-a]pyridin-6-yl]methoxy}-5′-(pyrazin-2-yl)tetrahydro-3′H-spiro[cyclobutane-1,2′-pyrrolo[2,1-b][1,3]oxazol]-3′-one], the EC50 was 349 nM. Turning to `O=C1N2[C@@H](CC[C@H]2c2ccc(F)cc2)OC12CC(Oc1nccn3ncnc13)C2` (stereo partly drawn) [Example 9.59, (5′S,7a′R)-5′-(4-fluorophenyl)-3-[([1,2,4]triazolo[1,5-a]pyrazin-8-yl)oxy]tetrahydro-3′H-spiro[cyclobutane-1,2′-pyrrolo[2,1-b][1,3]oxazol]-3′-one], the EC50 stood at 71.9 nM. As for `O=C1N2[C@@H](CC[C@H]2c2cc(F)cc(F)c2)OC12CC(Oc1ncccc1F)C2` (stereo partly drawn) [Example 9.38, (5′S,7a′R)-5′-(3,5-difluorophenyl)-3-[(3-fluoropyridin-2-yl)oxy]tetrahydro-3′H-spiro[cyclobutane-1,2′-pyrrolo[2,1-b][1,3]oxazol]-3′-one], the half-maximal effective concentration (EC50) came to 29 nM.

With `Cn1ccc([C@@H]2CC[C@H]3OC4(CC(Oc5cncc(Cl)c5)C4)C(=O)N32)n1` (stereo partly drawn) [Example 20.9, (5′S,7a′R)-3-[(5-chloropyridin-3-yl)oxy]-5′-(1-methyl-1H-pyrazol-3-yl)tetrahydro-3′H-spiro[cyclobutane-1,2′-pyrrolo[2,1-b][1,3]oxazol]-3′-one], the EC50 turned out to be 83 nM. Regarding `O=C1N2[C@@H](CC[C@H]2c2ccc(F)cc2)OC12CC(OCc1cccnc1)C2` (stereo partly drawn) [Example 9.60, (5′S,7a′R)-5′-(4-fluorophenyl)-3-[(pyridin-3-yl)methoxy]tetrahydro-3′H-spiro[cyclobutane-1,2′-pyrrolo[2,1-b][1,3]oxazol]-3′-one], the EC50 worked out at 188 nM.
